Reference: patent publication US12421210B2, “Fused bicyclic heterocycles as therapeutic agents” (NEW YORK UNIVERSITY, priority 2018, dated 2025)

What follows are compounds tested against human NAMPT enzyme (His-hNAMPT) (Homo sapiens (Human), UniProt P43490) (assay: NAMPT enzymatic inhibition assay (fluorescence, NADH product)). Conditions: [BPS]; read-out: NAMPT IC50 (μM) [BPS].
Assay type: biochemical
Method: The compounds were then diluted 20 fold in an intermediate dilution to 5% DMSO and water. Finally 10 μL of each compound was added to the assay plate, in duplicate, with highest concentration at 30 μM and the lowest at 0.001 μM in a final volume of 50 μL and 1% DMSO concentration. Each assay also tested, in parallel, two reference compounds, FK866 and GMX1778, with highest concentration at 10 μM and lowest at 0.0003 μM. 200 ng of human NAMPT enzyme (His-hNAMPT obtained from E. coli expression system) diluted in […] (tris-buffered saline-Polysorbate 20) 1× was added to each well in a volume of 10 μL and the compounds were incubated with the enzyme at room temperature for 20 minutes. After the incubation, 30 μL of master mixture were added to each well. The master mixture contained: 50 mM Tris-HCl, pH 8.0, 12.5 mM MgCl2, 20 μM nicotinamide, 40 μM phosphoribosyl pyrophosphate (PRPP), 20 μM adenosine triphosphate (ATP), 30 μg/mL of alcohol dehydrogenase, 10 μg/mL of NMNAT, 1.5% alcohol, 1 mM dithiothreitol (DTT), 0.02% bovine serum albumin (BSA), 0.01% Tween 20. The reaction was performed at 30° C. for 60 minutes. Fluorescence intensity was measured at an excitation of 340 nm and an emission of 460 nm using a Tecan Infinite M1000 microplate reader. The fluorescence values indicated increase of NADH product.
Enzyme activity assay was performed in duplicate at each concentration. The fluorescence data was analyzed and compared. In the absence of the compound, the intensity (Ce) in each data set was defined as 100% activity. In the absence of enzyme, the intensity (C0) in each data set was defined as 0% activity. The percent activity in the presence of each compound was calculated according to the following equation: % activity=(C−C0)/(Ce−C0), where C is the fluorescence in the presence of the compound.
The % activity vs. compound concentrations were then plotted using non-linear regression analysis of Sigmoidal dose-response curve generated with the equation Y=B+(T−B)/1+10^((Log EC50-X)×Hill Slope), where Y is percent activity, B is minimum percent activity, T is maximum percent activity, X is logarithm of compound and Hill Slope=slope factor or Hill coefficient.

human NAMPT enzyme (His-hNAMPT), sequence (P43490 whole entry): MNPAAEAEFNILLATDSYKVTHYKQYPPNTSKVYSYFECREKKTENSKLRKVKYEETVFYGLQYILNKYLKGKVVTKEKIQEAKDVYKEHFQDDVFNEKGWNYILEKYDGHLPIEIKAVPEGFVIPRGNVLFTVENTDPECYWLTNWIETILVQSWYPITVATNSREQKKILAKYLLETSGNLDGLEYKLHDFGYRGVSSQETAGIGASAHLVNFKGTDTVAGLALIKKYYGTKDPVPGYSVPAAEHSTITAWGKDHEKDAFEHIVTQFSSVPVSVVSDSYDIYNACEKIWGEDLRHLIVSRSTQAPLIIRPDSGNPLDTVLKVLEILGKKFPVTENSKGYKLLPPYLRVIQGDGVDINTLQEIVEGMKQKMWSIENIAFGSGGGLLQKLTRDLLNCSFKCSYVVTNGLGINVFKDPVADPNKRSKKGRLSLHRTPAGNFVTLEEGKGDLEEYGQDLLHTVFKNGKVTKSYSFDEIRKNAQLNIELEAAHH

| IC50 | Structure (SMILES) |
| --- | --- |
| 0.01 to 0.49 µM | CC1(OC(=O)N2C[C@@H]3[C@@H](CCNC(=O)C4C[C@@H]4c4cccnc4)[C@@H]3C2)COC1 (mixture of isomers) [Example 53, (1R,5S,6s)-3-methyloxetan-3-yl 6-(2-((1S,2S)-2-(pyridin-3-yl)cyclopropanecarboxamido)ethyl)-3-azabicyclo[3.1.0]hexane-3-carboxylate and (1R,5S,6s)-3-methyloxetan-3-yl 6-(2-((1R,2R)-2-(pyridin-3-yl)cyclopropanecarboxamido)ethyl)-3-azabicyclo[3.1.0]hexane-3-carboxylate] |
| 0.01 to 0.49 µM | O=C(/C=C/c1cccnc1)NCC[C@H]1[C@@H]2CN(c3ccccc3)C(=O)[C@H]12 (racemic) [Example 256 racemic, (E)-N-(2-((1R,5S,6S)-2-oxo-3-phenyl-3-azabicyclo[3.1.0]hexan-6-yl)ethyl)-3-(pyridin-3-yl)acrylamide and (E)-N-(2-((1S,5R,6R)-2-oxo-3-phenyl-3-azabicyclo[3.1.0]hexan-6-yl)ethyl)-3-(pyridin-3-yl)acrylamide] |
| 0.01 to 0.49 µM | O=C(/C=C/c1cccnc1)NCC[C@@H]1[C@H]2CN(Cc3ccccc3)C(=O)[C@@H]12 (racemic) [Example 257, (E)-N-(2-((1R,5S,6S)-3-benzyl-2-oxo-3-azabicyclo[3.1.0]hexan-6-yl)ethyl)-3-(pyridin-3-yl)acrylamide and (E)-N-(2-((1S,5R,6R)-3-benzyl-2-oxo-3-azabicyclo[3.1.0]hexan-6-yl)ethyl)-3-(pyridin-3-yl)acrylamide] |
| 0.01 to 0.49 µM | Nc1ccc(/C=C/C(=O)NCC[C@@H]2[C@H]3CN(Cc4ccccc4)C(=O)[C@@H]23)cn1 (racemic) [Example 258, (E)-3-(6-aminopyridin-3-yl)-N-(2-((1R,5S,6S)-3-benzyl-2-oxo-3-azabicyclo[3.1.0]hexan-6-yl)ethyl)acrylamide and (E)-3-(6-aminopyridin-3-yl)-N-(2-((1S,5R,6R)-3-benzyl-2-oxo-3-azabicyclo[3.1.0]hexan-6-yl)ethyl)acrylamide] |
| 0.01 to 0.49 µM | Nc1ccc(/C=C/C(=O)NCC[C@@H]2[C@H]3CN(c4ccccc4)C(=O)[C@@H]23)cn1 (racemic) [Example 259, (E)-3-(6-aminopyridin-3-yl)-N-(2-((1S,5R,6R)-2-oxo-3-phenyl-3-azabicyclo[3.1.0]hexan-6-yl)ethyl)acrylamide and (E)-3-(6-aminopyridin-3-yl)-N-(2-((1R,5S,6S)-2-oxo-3-phenyl-3-azabicyclo[3.1.0]hexan-6-yl)ethyl)acrylamide] |
| 0.5 to 0.99 µM | O=C(NCC[C@@H]1[C@H]2CN(c3ccccc3)C(=O)[C@@H]12)c1cc2ccncc2o1 (racemic) [Example 260, N-(2-((1R,5S,6S)-2-oxo-3-phenyl-3-azabicyclo[3.1.0]hexan-6-yl)ethyl)furo[2,3-c]pyridine-2-carboxamide and N-(2-((1S,5R,6R)-2-oxo-3-phenyl-3-azabicyclo[3.1.0]hexan-6-yl)ethyl)furo[2,3-c]pyridine-2-carboxamide] |
| 1 to 29 µM | CC(C)(C)OC(=O)N1C[C@H]2CCC(CNC(=O)NCc3cccnc3)C[C@H]2C1 (stereo in doubt) [Example 269, tert-butyl 5-((3-(pyridin-3-ylmethyl)ureido)methyl)hexahydro-1H-isoindole-2(3H)-carboxylate] |
| 0.01 to 0.49 µM | CC(C)(C)OC(=O)N1C[C@H]2CCC(CNC(=O)N3Cc4ccncc4C3)C[C@H]2C1 (stereo in doubt) [Example 270, tert-butyl 5-((2,3-dihydro-1H-pyrrolo[3,4-c]pyridine-2-carboxamido)methyl)hexahydro-1H-isoindole-2(3H)-carboxylate] |
| < 0.01 µM | CC(C)(C)OC(=O)N1C[C@@H]2[C@@H](CCNC(=O)/C=C/c3cccnc3)[C@@H]2C1 [Example 1, (1R,5S,6s)-tert-butyl 6-(2-((E)-3-(pyridin-3-yl)acrylamido)ethyl)-3-azabicyclo[3.1.0]hexane-3-carboxylate] |
| 0.01 to 0.49 µM | CC(C)(C)OC(=O)N1C[C@@H]2[C@@H](CCNC(=O)COc3cccnc3)[C@@H]2C1 [Example 2, (1R,5S,6s)-tert-butyl 6-(2-(2-(pyridin-3-yloxy)acetamido)ethyl)-3-azabicyclo[3.1.0]hexane-3-carboxylate] |
| 0.01 to 0.49 µM | CC(C)(C)OC(=O)N1C[C@@H]2[C@@H](CCNC(=O)c3cc4ccncc4s3)[C@@H]2C1 [Example 3] |
| 0.01 to 0.49 µM | CC(C)(C)OC(=O)N1C[C@@H]2[C@@H](CCNC(=O)/C=C/c3ccc(N)nc3)[C@@H]2C1 [Example 4, (1R,5S,6s)-tert-butyl 6-(2-((E)-3-(6-aminopyridin-3-yl)acrylamido)ethyl)-3-azabicyclo[3.1.0]hexane-3-carboxylate] |
| 0.01 to 0.49 µM | CC(C)(C)OC(=O)N1C[C@@H]2[C@@H](CCNC(=O)c3cc4ccncc4o3)[C@@H]2C1 [Example 5] |
| 0.01 to 0.49 µM | CC(C)(C)OC(=O)N1C[C@@H]2[C@@H](CCNC(=O)c3ccc4sccc4c3)[C@@H]2C1 [Example 6, (1R,5S,65s)-tert-butyl 6-(2-(benzo[b]thiophene-5-carboxamido)ethyl)-3-azabicyclo[3.1.0]hexane-3-carboxylate] |

| Structure (SMILES) | IC50 |
| --- | --- |
| CC(C)(C)OC(=O)N1C[C@@H]2[C@@H](CCNC(=O)c3ccc4nccn4c3)[C@@H]2C1 [Example 7, (1R,5S,6s)-tert-butyl 6-(2-(imidazo[1,2-a]pyridine-6-carboxamido)ethyl)-3-azabicyclo[3.1.0]hexane-3-carboxylate] | 0.01 to 0.49 µM |

Same assay, conditions: [HDB]; read-out: NAMPT IC50 (μM) [HDB]

| IC50 | Structure (SMILES) |
| --- | --- |
| 0.01 to 0.49 µM | O=C(/C=C/c1cccnc1)NCC[C@H]1[C@@H]2CN(c3ccccc3)C(=O)[C@H]12 (racemic) [Example 256 racemic, (E)-N-(2-((1R,5S,6S)-2-oxo-3-phenyl-3-azabicyclo[3.1.0]hexan-6-yl)ethyl)-3-(pyridin-3-yl)acrylamide and (E)-N-(2-((1S,5R,6R)-2-oxo-3-phenyl-3-azabicyclo[3.1.0]hexan-6-yl)ethyl)-3-(pyridin-3-yl)acrylamide] |
| 0.01 to 0.49 µM | O=C(/C=C/c1cccnc1)NCC[C@@H]1[C@H]2CN(c3cccc(C(F)(F)F)c3)C(=O)[C@@H]12 (racemic) [Example 262, (E)-N-(2-((1R,5S,6S)-2-oxo-3-(3-(trifluoromethyl)phenyl)-3-azabicyclo[3.1.0]hexan-6-yl)ethyl)-3-(pyridin-3-yl)acrylamide and (E)-N-(2-((1S,5R,6R)-2-oxo-3-(3-(trifluoromethyl)phenyl)-3-azabicyclo[3.1.0]hexan-6-yl)ethyl)-3-(pyridin-3-yl)acrylamide] |
| 0.01 to 0.49 µM | Nc1ccc(/C=C/C(=O)NCC[C@@H]2[C@H]3CN(c4cccc(C(F)(F)F)c4)C(=O)[C@@H]23)cn1 (racemic) [Example 263, (E)-3-(6-aminopyridin-3-yl)-N-(2-((1R,5S,6S)-2-oxo-3-(3-(trifluoromethyl)phenyl)-3-azabicyclo[3.1.0]hexan-6-yl)ethyl)acrylamide and (E)-3-(6-aminopyridin-3-yl)-N-(2-((1S,5R,6R)-2-oxo-3-(3-(trifluoromethyl)phenyl)-3-azabicyclo[3.1.0]hexan-6-yl)ethyl)acrylamide] |
| 0.01 to 0.49 µM | O=C(NCC[C@@H]1[C@H]2CN(c3ccc(F)cc3)C(=O)[C@@H]12)N1Cc2ccccc2C1 (racemic) [Example 266, N-(2-((1R,5S,6S)-3-(4-fluorophenyl)-2-oxo-3-azabicyclo[3.1.0]hexan-6-yl)ethyl)isoindoline-2-carboxamide and N-(2-((1S,5R,6R)-3-(4-fluorophenyl)-2-oxo-3-azabicyclo[3.1.0]hexan-6-yl)ethyl)isoindoline-2-carboxamide] |
| 0.01 to 0.49 µM | O=C(NCC[C@H]1[C@@H]2CN(c3ccccc3)C(=O)[C@H]12)c1cc(-c2cccnc2)on1 (stereo in doubt) [Example 261, N-(2-((1R,5S,6S)-2-oxo-3-phenyl-3-azabicyclo[3.1.0]hexan-6-yl)ethyl)-5-(pyridin-3-yl)isoxazole-3-carboxamide/N-(2-((1S,5R,6R)-2-oxo-3-phenyl-3-azabicyclo[3.1.0]hexan-6-yl)ethyl)-5-(pyridin-3-yl)isoxazole-3-carboxamide] |
| 0.01 to 0.49 µM | O=C(NCC[C@H]1[C@@H]2CN(c3ccc(F)cc3)C(=O)[C@H]12)c1cc(-c2cccnc2)on1 (stereo in doubt) [Example 265, N-(2-((1R,5,6S)-3-(4-fluorophenyl)-2-oxo-3-azabicyclo[3.1.0]hexan-6-yl)ethyl)-5-(pyridin-3-yl)isoxazole-3-carboxamide and N-(2-((1S,5R,6R)-3-(4-fluorophenyl)-2-oxo-3-azabicyclo[3.1.0]hexan-6-yl)ethyl)-5-(pyridin-3-yl)isoxazole-3-carboxamide] |

| Structure (SMILES) | IC50 |
| --- | --- |
| O=C(/C=C/c1cccnc1)NCC[C@@H]1[C@H]2CN(c3ccc(F)cc3)C(=O)[C@@H]12 (mixture of isomers) [Example 264, (E)-N-(2-((1R,5S,6S)-3-(4-fluorophenyl)-2-oxo-3-azabicyclo[3.1.0]hexan-6-yl)ethyl)-3-(pyridin-3-yl)acrylamide and (E)-N-(2-((1S,5R,6R)-3-(4-fluorophenyl)-2-oxo-3-azabicyclo[3.1.0]hexan-6-yl)ethyl)-3-(pyridin-3-yl)acrylamide] | 0.01 to 0.49 µM |
